Experimental data published in ChEMBL document CHEMBL3632501, “New SIRT1 activator from alkaline hydrolysate of total saponins in the stems-leaves of Panax ginseng” (Bioorg Med Chem Lett, 2015).
Each block holds one compound with its values, some of them ahead of it. Activity calls are given as the source filed them. The calls are words filed in the database; no cut-off is given here.

Tests used:
HL-60 = assay: Cytotoxicity against human HL60 cells after 48 hrs by MTT assay; format: functional, cell-based; details: for IC50: HL-60, 48 h
HepG2 = assay: Cytotoxicity against human HepG2 cells after 48 hrs by MTT assay; format: functional, cell-based; details: for IC50: HepG2, 48 h
[1] = biological target: T1, NAD-dependent protein deacetylase sirtuin-1 (Homo sapiens) (UniProt Q96EB6); assay: Activation of SIRT1 (unknown origin) after 45 mins by NAD/NADH enzyme-based fluorometric assay
T1 sequence (whole entry): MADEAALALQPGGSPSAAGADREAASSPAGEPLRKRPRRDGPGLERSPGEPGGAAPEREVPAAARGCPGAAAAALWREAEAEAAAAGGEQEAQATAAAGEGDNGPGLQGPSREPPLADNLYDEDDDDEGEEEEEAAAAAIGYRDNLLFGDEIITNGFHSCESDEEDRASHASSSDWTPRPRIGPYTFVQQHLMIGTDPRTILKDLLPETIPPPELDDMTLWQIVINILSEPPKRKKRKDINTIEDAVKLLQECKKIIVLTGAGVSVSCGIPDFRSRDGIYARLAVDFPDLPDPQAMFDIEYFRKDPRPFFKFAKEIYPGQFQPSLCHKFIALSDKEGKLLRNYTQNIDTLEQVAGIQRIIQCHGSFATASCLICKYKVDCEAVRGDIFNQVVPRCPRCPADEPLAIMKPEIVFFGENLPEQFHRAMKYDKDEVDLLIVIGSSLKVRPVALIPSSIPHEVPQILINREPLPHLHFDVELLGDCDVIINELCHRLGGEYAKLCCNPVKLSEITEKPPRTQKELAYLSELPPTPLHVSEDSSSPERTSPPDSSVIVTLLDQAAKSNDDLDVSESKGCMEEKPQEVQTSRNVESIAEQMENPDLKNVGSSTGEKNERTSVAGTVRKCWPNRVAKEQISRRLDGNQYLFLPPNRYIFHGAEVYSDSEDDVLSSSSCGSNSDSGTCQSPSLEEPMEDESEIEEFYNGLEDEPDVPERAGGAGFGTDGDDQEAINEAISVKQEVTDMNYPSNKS

Activity [1]: Active
Compound: C=C(CCC=C(C)C)[C@H]1CC[C@]2(C)[C@@H]1[C@H](O)C[C@@H]1[C@@]3(C)CC[C@H](O)C(C)(C)[C@@H]3[C@@H](O)C[C@]12C
IC50 (HL-60): 18.3 µM
IC50 (HepG2): 42.1 µM

Compound: CC(C)=CCC[C@@](C)(O)[C@H]1CC[C@]2(C)[C@@H]1[C@H](O)C[C@@H]1[C@@]3(C)CC[C@H](O)C(C)(C)[C@@H]3[C@@H](O[C@@H]3O[C@H](CO)[C@@H](O)[C@H](O)[C@H]3O)C[C@]12C
IC50 (HL-60): > 200 µM
IC50 (HepG2): > 200 µM
Activity [1]: inactive

Compound: CCC1=C[C@@H]2CN(C1)Cc1c([nH]c3ccccc13)[C@@](C(=O)OC)(c1cc3c(cc1OC)N(C)[C@H]1[C@@](O)(C(=O)OC)[C@H](OC(C)=O)[C@]4(CC)C=CCN5CC[C@]31[C@@H]54)C2 [VINORELBINE]
IC50 (HL-60): 11.5 µM
IC50 (HepG2): 23.1 µM

Compound: CC(C)=CC/C=C(\C)[C@H]1CC[C@]2(C)[C@@H]1[C@H](O)C[C@@H]1[C@@]3(C)CC[C@H](O)C(C)(C)[C@@H]3[C@@H](O[C@@H]3O[C@H](CO)[C@@H](O)[C@H](O)[C@H]3O[C@@H]3O[C@@H](C)[C@H](O)[C@@H](O)[C@H]3O)C[C@]12C
IC50 (HL-60): 82.8 µM
IC50 (HepG2): 152 µM
Activity [1]: inactive

Activity [1]: Active
Compound: CC(=O)OC[C@H]1O[C@@H](O[C@H]2C[C@]3(C)[C@H](C[C@@H](O)[C@@H]4[C@@H]([C@@](C)(O)CCC=C(C)C)CC[C@]43C)[C@@]3(C)CC[C@H](O)C(C)(C)[C@H]23)[C@H](O)[C@@H](O)[C@@H]1O
IC50 (HL-60): 128 µM
IC50 (HepG2): 169 µM

Compound: C=C(CCC=C(C)C)[C@H]1CC[C@]2(C)[C@@H]1[C@H](O)C[C@@H]1[C@@]3(C)CC[C@H](O[C@@H]4O[C@H](CO)[C@@H](O)[C@H](O)[C@H]4O[C@@H]4O[C@H](CO)[C@@H](O)[C@H](O)[C@H]4O)C(C)(C)[C@@H]3CC[C@]12C [GISENOSIDE RK1]
IC50 (HL-60): 58.1 µM
IC50 (HepG2): 79.8 µM
Activity [1]: Active

Compound: CC(C)=CC/C=C(\C)[C@H]1CC[C@]2(C)[C@@H]1[C@H](O)C[C@@H]1[C@@]3(C)CC[C@H](O)C(C)(C)[C@@H]3[C@@H](O)C[C@]12C
Activity (HL-60): Dose-dependent effect
IC50 (HL-60): 10.3 µM
Activity (HepG2): Dose-dependent effect
IC50 (HepG2): 24.3 µM
Activity [1]: Active

Compound: CC(C)=CCC[C@](C)(O)[C@H]1CC[C@]2(C)[C@@H]1[C@H](O)C[C@@H]1[C@@]3(C)CC[C@H](O)C(C)(C)[C@@H]3[C@@H](O)C[C@]12C
IC50 (HL-60): 22.8 µM
IC50 (HepG2): 43.4 µM
Activity [1]: Active

Compound: CC(C)=CCC[C@@](C)(O)[C@H]1CC[C@]2(C)[C@@H]1[C@H](O)C[C@@H]1[C@@]3(C)CC[C@H](O)C(C)(C)[C@@H]3[C@@H](O)C[C@]12C
IC50 (HL-60): 28.7 µM
IC50 (HepG2): 58.3 µM
Activity [1]: Active

Compound: CC(C)=CCC[C@](C)(O)[C@H]1CC[C@]2(C)[C@@H]1[C@H](O)C[C@@H]1[C@@]3(C)CC[C@H](O)C(C)(C)[C@@H]3[C@@H](O[C@@H]3O[C@H](CO)[C@@H](O)[C@H](O)[C@H]3O)C[C@]12C [GINSENOSIDE RH1]
IC50 (HL-60): > 200 µM
IC50 (HepG2): > 200 µM
Activity [1]: Active

Compound: CC(C)=CCC[C@@](C)(O)[C@H]1CC[C@]2(C)[C@@H]1[C@H](O)C[C@@H]1[C@@]3(C)CC[C@H](O)C(C)(C)[C@@H]3CC[C@]12C
IC50 (HL-60): 23.4 µM
IC50 (HepG2): 69.1 µM
Activity [1]: Active

Compound: CC(C)=CCC[C@](C)(O)[C@H]1CC[C@]2(C)[C@@H]1[C@H](O)C[C@@H]1[C@@]3(C)CC[C@H](O)C(C)(C)[C@@H]3CC[C@]12C
IC50 (HL-60): 15.5 µM
IC50 (HepG2): 45.7 µM
Activity [1]: Active

Activity [1]: Active
Compound: CC(C)=CC/C=C(\C)[C@H]1CC[C@]2(C)[C@@H]1[C@H](O)C[C@@H]1[C@@]3(C)CC[C@H](O[C@@H]4O[C@H](CO)[C@@H](O)[C@H](O)[C@H]4O)C(C)(C)[C@@H]3[C@@H](O)C[C@]12C
IC50 (HL-60): 50.2 µM
IC50 (HepG2): 86.5 µM

Activity [1]: Active
Compound: C=C(C)[C@@H](O)C/C=C(\C)[C@H]1CC[C@]2(C)[C@@H]1[C@H](O)C[C@@H]1[C@@]3(C)CC[C@H](O[C@@H]4O[C@H](CO)[C@@H](O)[C@H](O)[C@H]4O)C(C)(C)[C@@H]3CC[C@]12C
IC50 (HL-60): 24.8 µM
IC50 (HepG2): 44.1 µM
